Source: the NIST ThermoML archive (doi:10.1021/je049609w)

Columns and labels:
[1] = xn = mol fraction of the nth substance listed; conditions: 101 kPa, Liquid
[2] = refractive index (Na D-line) (dimensionless); xn = mol fraction of the nth substance listed; conditions: 101 kPa, Liquid

C1COCCO1 [1,4-dioxane] + CCCCO
Conditions | mass density, 298.15 K [kg/m3] | mass density, 303.15 K [kg/m3] | mass density, 308.15 K [kg/m3] | refractive index, 298.15 K | refractive index, 303.15 K | refractive index, 308.15 K | speed of sound, 298.15 K [m/s] | viscosity, 298.15 K [mPa·s] | viscosity, 303.15 K [mPa·s] | viscosity, 308.15 K [mPa·s]
[1], x1 = 0.1014 | 826.1 | 822.1 | 818.1 | – | – | – | 1249 | 2.15 | 1.926 | 1.703
[1], x1 = 0.2015 | 846.7 | 842.4 | 838.1 | – | – | – | 1260 | 1.757 | 1.602 | 1.447
[1], x1 = 0.2982 | 866.9 | 862.4 | 858 | – | – | – | 1270 | 1.489 | 1.347 | 1.204
[1], x1 = 0.3995 | 888.7 | 884 | 879.5 | – | – | – | 1281 | 1.327 | 1.196 | 1.066
[1], x1 = 0.4945 | 909.6 | 904.8 | 900.1 | – | – | – | 1291 | 1.241 | 1.13 | 1.03
[1], x1 = 0.5993 | 933.5 | 928.4 | 923.4 | – | – | – | 1301 | 1.177 | 1.081 | 0.985
[1], x1 = 0.7023 | 957.5 | 952.3 | 947.1 | – | – | – | 1310 | 1.153 | 1.063 | 0.972
[1], x1 = 0.802 | 981.1 | 975.8 | 970.4 | – | – | – | 1320 | 1.162 | 1.07 | 0.979
[1], x1 = 0.9017 | 1004.9 | 999.5 | 994 | – | – | – | 1332 | 1.17 | 1.078 | 0.986
[1], x1 = 1 | 1028.6 | 1022.9 | 1017.2 | – | – | – | 1345 | 1.196 | 1.095 | 1.008
[2], x1 = 0.1014 | – | – | – | 1.3999 | 1.3976 | 1.3952 | – | – | – | –
[2], x1 = 0.2015 | – | – | – | 1.4016 | 1.3992 | 1.3968 | – | – | – | –
[2], x1 = 0.2982 | – | – | – | 1.4032 | 1.4008 | 1.3984 | – | – | – | –
[2], x1 = 0.3995 | – | – | – | 1.4052 | 1.4028 | 1.4003 | – | – | – | –
[2], x1 = 0.4945 | – | – | – | 1.4071 | 1.4046 | 1.4022 | – | – | – | –
[2], x1 = 0.5993 | – | – | – | 1.4095 | 1.4069 | 1.4044 | – | – | – | –
[2], x1 = 0.7023 | – | – | – | 1.4119 | 1.4094 | 1.4068 | – | – | – | –
[2], x1 = 0.802 | – | – | – | 1.4145 | 1.4118 | 1.4093 | – | – | – | –
[2], x1 = 0.9017 | – | – | – | 1.4172 | 1.4145 | 1.4118 | – | – | – | –
[2], x1 = 1 | – | – | – | 1.4203 | 1.4164 | 1.4145 | – | – | – | –

OCCCl [1-chloro-2-hydroxyethane] + C1COCCO1
Conditions | mass density, 298.15 K [kg/m3] | mass density, 303.15 K [kg/m3] | mass density, 308.15 K [kg/m3] | refractive index, 298.15 K | refractive index, 303.15 K | refractive index, 308.15 K | speed of sound, 298.15 K [m/s] | viscosity, 298.15 K [mPa·s] | viscosity, 303.15 K [mPa·s] | viscosity, 308.15 K [mPa·s]
[1], x2 = 0 | 1200.9 | 1192.5 | 1187.1 | – | – | – | 1358 | 3.104 | 2.669 | 2.347
[1], x2 = 0.1024 | 1177.7 | 1171.1 | 1165.1 | – | – | – | 1357 | 2.755 | 2.457 | 2.16
[1], x2 = 0.2001 | 1157 | 1151.1 | 1145.2 | – | – | – | 1356 | 2.431 | 2.17 | 1.909
[1], x2 = 0.3035 | 1136.7 | 1131.1 | 1125.5 | – | – | – | 1354 | 2.088 | 1.877 | 1.666
[1], x2 = 0.4041 | 1118.2 | 1112.7 | 1107.2 | – | – | – | 1353 | 1.858 | 1.682 | 1.505
[1], x2 = 0.5047 | 1100.8 | 1095.4 | 1090 | – | – | – | 1352 | 1.649 | 1.496 | 1.344
[1], x2 = 0.6031 | 1084.8 | 1079.4 | 1073.9 | – | – | – | 1350 | 1.505 | 1.376 | 1.248
[1], x2 = 0.7015 | 1069.5 | 1064.1 | 1058.7 | – | – | – | 1349 | 1.377 | 1.265 | 1.152
[1], x2 = 0.8009 | 1054.9 | 1049.5 | 1044.1 | – | – | – | 1347 | 1.304 | 1.199 | 1.095
[1], x2 = 0.9003 | 1041.6 | 1030.9 | 1030.2 | – | – | – | 1346 | 1.233 | 1.136 | 1.038
[2], x2 = 0 | – | – | – | 1.4411 | 1.438 | 1.4326 | – | – | – | –
[2], x2 = 0.1024 | – | – | – | 1.4389 | 1.4356 | 1.4324 | – | – | – | –
[2], x2 = 0.2001 | – | – | – | 1.4363 | 1.4337 | 1.431 | – | – | – | –
[2], x2 = 0.3035 | – | – | – | 1.4337 | 1.4314 | 1.4292 | – | – | – | –
[2], x2 = 0.4041 | – | – | – | 1.4314 | 1.4291 | 1.4268 | – | – | – | –
[2], x2 = 0.5047 | – | – | – | 1.429 | 1.4269 | 1.4247 | – | – | – | –
[2], x2 = 0.6031 | – | – | – | 1.4273 | 1.4249 | 1.4225 | – | – | – | –
[2], x2 = 0.7015 | – | – | – | 1.4256 | 1.4231 | 1.4205 | – | – | – | –
[2], x2 = 0.8009 | – | – | – | 1.4235 | 1.4211 | 1.4187 | – | – | – | –
[2], x2 = 0.9003 | – | – | – | 1.4214 | 1.4191 | 1.4168 | – | – | – | –

C1COCCO1 [1,4-dioxane] + OCCCl
x1 = 1
Conditions | mass density, 298.15 K [kg/m3] | mass density, 303.15 K [kg/m3] | mass density, 308.15 K [kg/m3] | refractive index, 298.15 K | refractive index, 303.15 K | refractive index, 308.15 K | speed of sound, 298.15 K [m/s] | viscosity, 298.15 K [mPa·s] | viscosity, 303.15 K [mPa·s] | viscosity, 308.15 K [mPa·s]
[1] | 1028.6 | 1022.9 | 1017.2 | – | – | – | 1345 | 1.196 | 1.095 | 1.008
[2] | – | – | – | 1.4203 | 1.4164 | 1.4145 | – | – | – | –

CCOC(=O)CC(=O)OCC [diethyl 1,3-propanedioate] + C1COCCO1
Conditions | mass density, 298.15 K [kg/m3] | mass density, 303.15 K [kg/m3] | mass density, 308.15 K [kg/m3] | refractive index, 298.15 K | refractive index, 303.15 K | refractive index, 308.15 K | speed of sound, 298.15 K [m/s] | viscosity, 298.15 K [mPa·s] | viscosity, 303.15 K [mPa·s] | viscosity, 308.15 K [mPa·s]
[1], x2 = 0 | 1049.6 | 1044.2 | 1038.8 | – | – | – | 1304 | 1.941 | 1.755 | 1.602
[1], x2 = 0.1005 | 1048.1 | 1042.8 | 1037.4 | – | – | – | 1308 | 1.858 | 1.698 | 1.537
[1], x2 = 0.1982 | 1046.6 | 1041.2 | 1035.8 | – | – | – | 1312 | 1.777 | 1.626 | 1.476
[1], x2 = 0.2959 | 1044.9 | 1039.6 | 1034.2 | – | – | – | 1316 | 1.7 | 1.556 | 1.413
[1], x2 = 0.3959 | 1043 | 1037.7 | 1032.3 | – | – | – | 1320 | 1.619 | 1.484 | 1.349
[1], x2 = 0.4959 | 1041 | 1035.6 | 1030.2 | – | – | – | 1324 | 1.542 | 1.415 | 1.287
[1], x2 = 0.5951 | 1038.8 | 1033.4 | 1028 | – | – | – | 1328 | 1.465 | 1.346 | 1.227
[1], x2 = 0.6944 | 1036.4 | 1030.9 | 1025.5 | – | – | – | 1332 | 1.391 | 1.28 | 1.17
[1], x2 = 0.796 | 1033.7 | 1028.2 | 1022.8 | – | – | – | 1337 | 1.316 | 1.214 | 1.111
[1], x2 = 0.8977 | 1030.9 | 1025.4 | 1019.9 | – | – | – | 1341 | 1.249 | 1.153 | 1.057
[2], x2 = 0 | – | – | – | 1.4132 | 1.4108 | 1.4085 | – | – | – | –
[2], x2 = 0.1005 | – | – | – | 1.4135 | 1.4113 | 1.409 | – | – | – | –
[2], x2 = 0.1982 | – | – | – | 1.4139 | 1.412 | 1.4093 | – | – | – | –
[2], x2 = 0.2959 | – | – | – | 1.4143 | 1.4123 | 1.4095 | – | – | – | –
[2], x2 = 0.3959 | – | – | – | 1.4147 | 1.4127 | 1.4099 | – | – | – | –
[2], x2 = 0.4959 | – | – | – | 1.415 | 1.4137 | 1.4103 | – | – | – | –
[2], x2 = 0.5951 | – | – | – | 1.4161 | 1.4147 | 1.4113 | – | – | – | –
[2], x2 = 0.6944 | – | – | – | 1.4171 | 1.4157 | 1.4122 | – | – | – | –
[2], x2 = 0.796 | – | – | – | 1.4181 | 1.4167 | 1.4132 | – | – | – | –
[2], x2 = 0.8977 | – | – | – | 1.4192 | 1.4231 | 1.4141 | – | – | – | –
